Marks after values point to notes of the source that are not given here.
How the values were obtained:
rats = test: Tail-flick (hot beam) test in rats; assay type: in vivo, rat; conditions: dosage 30 mg/kg i.v.
Method: Sprague Dawley rats (140-160 g body weight) were used for the following animal models. Sprague Dawley rats (140-160 g body weight) from a commercial breeder (Janvier, Genest St. Isle, France) were used. The animals were kept under standard conditions: light-dark rhythm (06:00 to 18:00 h light, 18:00 to 06:00 h dark), room temperature 19-23° C., relative air humidity 45-65%, air exchange 19 times per hour, air movement <0.2 m/s, free choice of tap water and standard feed, Macrolon Type 4 cages with 5 animals per cage. The solutions of the test substances and/or vehicles (10% […], 5% Cremophor EL, 5% glucose) were administered intravenously.
The analgesic efficacy of the test compounds was examined in the hot beam (tail flick) test in rats using the method of D'Amour and Smith (J. Pharm. Exp. Ther. 1941, 72, 74-79). The time from switching on the lamp (8V/50 W) to the sudden flicking away of the tail from the hot beam (pain latency) was measured by means of a semiautomatic apparatus (tail-flick Analgesiemeter Type 50/08/1.bc, Labtec, Dr. Hess, Germany). The lamp intensity was adjusted before conducting the experiments so that the time from switching on the lamp to the sudden flicking away of the tail (pain latency) amounted to 3-5 seconds in untreated animals. The lamp was automatically switched off after 12 seconds to avoid tissue damage to the rat's tail. The pain latency was measured 10, 20, 40 and 60 min after intravenous administration. The analgesic effect was determined as increase in pain latency (% MPE) according to the following formula: […]
In this case, T0 is the latency time before and T1 the latency time after substance application, T2 is the maximum exposure time (12 sec). Results of the analgesia study in the tail-flick test in rats:
The following experiments of Example 2 relate to binding studies and the analgesic efficacy of the compounds with dual mode of action according to the invention. The experiments comprise the determination of the (f)Ki value at the TPRV1 receptor, the Ki value at the μ-opioid receptor and the hypothermia assay in mice. The tail-flick test for the compounds [1], [4], [7] and [10] according to the invention was conducted in a similar manner to the above-described method (cf. Example 1, experiment 1).

human VR1 = target: T1, human VR1 (Homo sapiens, UniProt Q8NER1); test: FLIPR pH assay; assay type: cell-based
T1 construct: expressed in transfected cells; host or cells: CHO K1 cells (ECACC), stably transfected
T1 sequence (Q8NER1 whole entry): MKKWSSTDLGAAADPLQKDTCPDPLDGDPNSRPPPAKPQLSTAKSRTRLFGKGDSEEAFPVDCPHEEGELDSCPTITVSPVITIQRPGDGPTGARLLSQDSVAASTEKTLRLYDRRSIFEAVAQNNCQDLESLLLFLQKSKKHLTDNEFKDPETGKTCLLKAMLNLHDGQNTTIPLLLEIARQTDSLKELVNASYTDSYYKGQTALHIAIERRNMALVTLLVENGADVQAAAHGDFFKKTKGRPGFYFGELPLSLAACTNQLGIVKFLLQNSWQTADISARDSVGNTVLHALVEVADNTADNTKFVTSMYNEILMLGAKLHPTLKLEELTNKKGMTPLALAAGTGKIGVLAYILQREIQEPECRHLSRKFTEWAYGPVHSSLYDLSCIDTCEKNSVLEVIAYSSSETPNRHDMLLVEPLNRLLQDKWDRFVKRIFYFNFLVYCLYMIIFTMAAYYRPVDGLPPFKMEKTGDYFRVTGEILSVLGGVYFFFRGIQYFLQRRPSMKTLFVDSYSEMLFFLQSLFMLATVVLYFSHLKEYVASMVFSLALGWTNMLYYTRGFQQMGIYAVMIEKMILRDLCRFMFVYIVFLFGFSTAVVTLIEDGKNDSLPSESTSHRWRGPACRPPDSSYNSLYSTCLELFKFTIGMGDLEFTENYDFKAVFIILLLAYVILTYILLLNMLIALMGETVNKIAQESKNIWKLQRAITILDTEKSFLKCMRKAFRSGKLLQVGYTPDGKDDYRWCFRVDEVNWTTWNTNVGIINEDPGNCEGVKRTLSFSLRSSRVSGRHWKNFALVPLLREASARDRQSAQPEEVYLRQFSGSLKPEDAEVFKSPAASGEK
Description: (§1) The agonist or antagonist effect of substances can be determined at the vanilloid receptor 1 (VR1/TRPV1) of the human and rat species with the assay described below. Accordingly, the Ca^2+ influx through the channel is quantified by means of a Ca^2+-sensitive dye (Fluo-4, Molecular Probes Europe BV, Leiden, The Netherlands) in the fluorescent imaging plate reader (FLIPR, Molecular Devices, Sunnyvale, USA).
(§2) Chinese hamster ovary cells (CHO K1 cells, ECACC, England) are stably transfected with human or rat VR1 cDNA. For functional studies these cells are plated onto poly-D-lysine-coated black 96-hole plates with a clear base (BD Biosciences, Heidelberg, Germany) in a density of 25 000 cells/cavity. The cells are incubated overnight at 37° C. with 5% CO2 in culture medium (nutrient mixture Ham's F12, Gibco Invitrogen GmbH, Karlsruhe, Germany) with 10% vol. FBS (foetal bovine serum, Gibco Invitrogen GmbH, Karlsruhe, Germany) and 18 μg/ml of L-proline (Gibco Invitrogen GmbH, Karlsruhe, Germany). On the following day, the cells are laden with 2 μM Fluo-4 and 0.01% vol. Pluronic F127 (Molecular Probes Europe BV, Leiden, The Netherlands) in HBSS buffer (Hank's buffered saline solution, Gibco Invitrogen GmbH, Karlsruhe, Germany) for 30 min at 37° C. The plates are then washed 3 times in HBSS buffer and after further incubation for 15 minutes at room temperature are placed in the FLIPR for the Ca^2+ measurement. In this case, the Ca^2+-dependent fluorescence is measured before and after the addition of substances (λex=488 nm, λem=540 nm). Quantification occurs as a result of the measurement of the highest fluorescence intensity (FC, fluorescence counts) over time.
In the pH assay, HBSS that now contains 60 mM MES instead of capsaicin is applied to human VR1-transfected CHO K1 cells (adjusted pH value of the addition solution is 4.95). Percentage inhibition and IC50 values are raised and evaluated as already described for the capsaicin test.

male NMRI mice = test: Hypothermia assay in mice (capsaicin-induced hypothermia); assay type: in vivo, mouse; conditions: dosage 3 mg/kg p.o., capsaicin 3 mg/kg i.p.
Method: The hypothermia assay was conducted on male NMRI mice (weight 25-35 gram). The animals were kept in standardised conditions: light/dark rhythm (6:00 to 18:00 h light phase, 18:00 to 6:00 h dark phase), room temperature 19-22° C., relative air humidity 35-70%, air exchange 15 times per hour, air movement <0.2 m/sec. The animals received standard feed (ssniff R/M-Haltung, ssniff Spezialdiäten GmbH, Soest, Germany) and tap water. Water and feed were withdrawn during the test. All the animals were used only once in the test. […] The acute application of capsaicin (VR-1 agonist) causes a drop in core body temperature in rats and mice via a stimulation of heat sensors. Only specific active VR-1 receptor antagonists can antagonise capsaicin-induced hypothermia. In contrast, hypothermia induced by morphine is not antagonised by VR-1 antagonists. This model is therefore suitable for identifying substances with VR-1 antagonist properties via the effect on the body temperature.
A digital thermometer (Thermalert TH-5, physitemp, Clifton N.J., USA) is used for measuring the core body temperature. The measurement sensor is inserted into the rectum of the animals in this case. As an individual base value the body temperature is measured twice in each animal at an interval of approximately half an hour. A group of animals (n=6 to 10) then received an intraperitoneal (i.p.) application of capsaicin of 3 mg/kg and vehicle (control group). Another group of animals received the substance to be tested (i.v. or p.o.) and additionally capsaicin (3 mg/kg) i.p. The test substance was applied i.v. 10 min or p.o. 15 minutes before the application of capsaicin. Then, the body temperature was measured 7.5, 15 and 30 min after capsaicin application (i.v.+i.p.) or 15, 30, 60, 90 and 120 min after capsaicin application (p.o.+i.p.). In addition, one animal group was treated only with test substance and one group was treated only with vehicle. The antagonist effect is calculated as a percentage reduction in the capsaicin-induced hypothermia.

[1] = target: T2, vanilloid receptor 1 (VR1/TRPV1) (Homo sapiens, UniProt Q8NER1); test: FLIPR capsaicin assay; assay type: cell-based, human or rat; conditions: functional Ki, capsaicin 100 nM, VR1-transfected CHO K1 cells, modified Cheng-Prusoff; read-out: f(Ki) (VR1)
T2 construct: expressed in transfected cells; host or cells: CHO K1 cells (ECACC), stably transfected
T2 sequence (Q8NER1 whole entry): as above
Description: as §1, §2
The FLIPR protocol consists of 2 substance additions. Test substances (10 μM) are firstly pipetted onto the cells and the Ca^2+ influx is compared to the control (capsaicin 10 μM). This gives the specification in % activation in relation to the Ca^2+ signal after adding 10 μM of capsaicin. After 5 minutes incubation 100 nM of capsaicin are applied and the influx of Ca^2+ likewise determined. Desensitising agonists and antagonists lead to a suppression of the Ca^2+ influx. Inhibition values [%] are calculated in comparison to the maximum achievable inhibition with a saturating concentration of […] or another reference antagonist. The test substance is added in different concentrations to determine the IC50 and functional Ki value ((f)Ki). Triple determinations (n=3) are conducted and these are repeated in at least one further independent experiment (N>=2). A capsaicin dose action curve is generated to incorporate the thus determined EC50 values into the associated (f)Ki determination. EC50/IC50 values are calculated using ‘Prism4’ software from GraphPad Software™ or with XLfit4™ (ID Business Solutions Ltd.). (f)Ki values are calculated in accordance with the modified Cheng-Prusoff equation (Cheng, Prusoff; Biochem. Pharmacol. 22, 3099-3108, 1973). Testing for non-specific inhibition of the fluorescence as a result of the substances is conducted by activating wild type CHO K1 cells incubated with the same test substances with ATP (10 μM final concentration).

[2] = target: T3, human recombinant μ-opioid receptor (Homo sapiens, UniProt P35372); test: Ki value at the μ-opioid receptor (Experiment 4); assay type: binding
T3 construct: expressed in transfected cells; host or cells: CHO-K1 cells (membrane preparation)
T3 sequence (P35372 whole entry): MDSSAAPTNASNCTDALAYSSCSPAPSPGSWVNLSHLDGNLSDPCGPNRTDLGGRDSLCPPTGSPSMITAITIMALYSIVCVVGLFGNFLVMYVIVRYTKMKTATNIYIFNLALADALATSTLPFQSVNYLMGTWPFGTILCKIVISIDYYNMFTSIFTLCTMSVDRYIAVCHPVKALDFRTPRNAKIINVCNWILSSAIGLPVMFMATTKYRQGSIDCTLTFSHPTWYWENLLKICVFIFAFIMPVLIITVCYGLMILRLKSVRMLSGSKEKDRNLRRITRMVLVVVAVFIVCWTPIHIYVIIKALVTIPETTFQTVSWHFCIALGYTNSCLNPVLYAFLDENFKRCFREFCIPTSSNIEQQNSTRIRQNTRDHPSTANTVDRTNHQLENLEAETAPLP

With `CC(C(=O)NCc1ccc(C(F)(F)F)cc1N1CCC(Cc2ccccc2)(N(C)C)CC1)c1ccc(NS(C)(=O)=O)c(F)c1` (centres unmarked) [[7], N-(2-(4-benzyl-4-(dimethylamino)piperidin-1-yl)-4-(trifluoromethyl)benzyl)-2-(3-fluoro-4-(methylsulfonamido)phenyl)propanamide] the “Tail-Flick [% MPE]” value (rats) was “n.e.^3), 100%^4) % MPE”, the IC50 (human VR1) was 0.434 µM and the “Hypothermia Assay [% Inhibition]” value (male NMRI mice) was 59%^1). It also gave a Ki [1] of 0.0028 µM and a Ki [2] of 0.024 µM.

For `CC(C(=O)NCc1ccc(C(F)(F)F)cc1N1CCC(c2cccs2)(N(C)C)CC1)c1ccc(NS(C)(=O)=O)c(F)c1` (centres unmarked) [[4], N-(2-(4-(dimethylamino)-4-(thiophen-2-yl)piperidin-1-yl)-4-(trifluoromethyl)benzyl)-2-(3-fluoro-4-(methylsulfonamido)phenyl)propanamide], the “Tail-Flick [% MPE]” value (rats) was “n.e.^3), 37%^4) % MPE”, the IC50 (human VR1) was 0.776 µM and the “Hypothermia Assay [% Inhibition]” value (male NMRI mice) was 4%^1). For the same compound, the Ki [1] was 0.005 µM and the Ki [2] was 0.061 µM.

`CC(C(=O)NCc1ccc(C(F)(F)F)cc1N1CCC(Cc2cccc(F)c2)(N(C)C)CC1)c1ccc(NS(C)(=O)=O)c(F)c1` (centres unmarked) [[10], N-(2-(4-(dimethylamino)-4-(3-fluorobenzyl)piperidin-1-yl)-4-(trifluoromethyl)benzyl)-2-(3-fluoro-4-(methylsulfonamido)phenyl)propanamide] was tested, and the IC50 (human VR1) was 0.137 µM, the “Hypothermia Assay [% Inhibition]” value (male NMRI mice) was 29%^1) and the Ki [1] was 0.0014 µM. It also gave a Ki [2] of 0.079 µM.

Reference: US20090286831A1, “VR1 Receptor Ligands and u-Opioid Receptor Ligands for the Treatment of Pain” (priority 2006, published 2009)
